From US11098044B2, “Imidazopyridinyl compounds and use thereof for treatment of neurodegenerative disorders” (1ST Biotherapeutics, Inc., priority 2019, dated 2021)

How the values were obtained:
Type in all cases: biochemical
[1] = biological target: c-Abl (His-tagged recombinant human ABL1) (Homo sapiens (Human), UniProt P00519); assay: c-abl Kinase Assay (ADP-Glo); details: ATP (25 μM), Abltide substrate
Method in brief: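 His-tagged human ABL1 (0.25 ng/μl), Abltide (0.01 μg/μl) and ATP (25 μM), each at its added concentration, reacted with compound (0.5% DMSO) for 30 min at 30 °C. Buffer was 50 mM HEPES pH 7.5, 10 mM MgCl2, 1 mM EGTA, 0.05% BSA, 0.01% Triton X-100, 2 mM DTT. ADP formed was read by ADP-Glo luminescence, and IC50 was fitted from percent inhibition across concentrations.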

LRRK2 (WT) = LRRK2 (WT) (Homo sapiens (Human), UniProt Q5S007); assay: LRRK2 Kinase Assay (Adapta); details: 70 μM ATP, LRRKtide substrate
Chain of LRRK2 (WT) (Q5S007 whole entry): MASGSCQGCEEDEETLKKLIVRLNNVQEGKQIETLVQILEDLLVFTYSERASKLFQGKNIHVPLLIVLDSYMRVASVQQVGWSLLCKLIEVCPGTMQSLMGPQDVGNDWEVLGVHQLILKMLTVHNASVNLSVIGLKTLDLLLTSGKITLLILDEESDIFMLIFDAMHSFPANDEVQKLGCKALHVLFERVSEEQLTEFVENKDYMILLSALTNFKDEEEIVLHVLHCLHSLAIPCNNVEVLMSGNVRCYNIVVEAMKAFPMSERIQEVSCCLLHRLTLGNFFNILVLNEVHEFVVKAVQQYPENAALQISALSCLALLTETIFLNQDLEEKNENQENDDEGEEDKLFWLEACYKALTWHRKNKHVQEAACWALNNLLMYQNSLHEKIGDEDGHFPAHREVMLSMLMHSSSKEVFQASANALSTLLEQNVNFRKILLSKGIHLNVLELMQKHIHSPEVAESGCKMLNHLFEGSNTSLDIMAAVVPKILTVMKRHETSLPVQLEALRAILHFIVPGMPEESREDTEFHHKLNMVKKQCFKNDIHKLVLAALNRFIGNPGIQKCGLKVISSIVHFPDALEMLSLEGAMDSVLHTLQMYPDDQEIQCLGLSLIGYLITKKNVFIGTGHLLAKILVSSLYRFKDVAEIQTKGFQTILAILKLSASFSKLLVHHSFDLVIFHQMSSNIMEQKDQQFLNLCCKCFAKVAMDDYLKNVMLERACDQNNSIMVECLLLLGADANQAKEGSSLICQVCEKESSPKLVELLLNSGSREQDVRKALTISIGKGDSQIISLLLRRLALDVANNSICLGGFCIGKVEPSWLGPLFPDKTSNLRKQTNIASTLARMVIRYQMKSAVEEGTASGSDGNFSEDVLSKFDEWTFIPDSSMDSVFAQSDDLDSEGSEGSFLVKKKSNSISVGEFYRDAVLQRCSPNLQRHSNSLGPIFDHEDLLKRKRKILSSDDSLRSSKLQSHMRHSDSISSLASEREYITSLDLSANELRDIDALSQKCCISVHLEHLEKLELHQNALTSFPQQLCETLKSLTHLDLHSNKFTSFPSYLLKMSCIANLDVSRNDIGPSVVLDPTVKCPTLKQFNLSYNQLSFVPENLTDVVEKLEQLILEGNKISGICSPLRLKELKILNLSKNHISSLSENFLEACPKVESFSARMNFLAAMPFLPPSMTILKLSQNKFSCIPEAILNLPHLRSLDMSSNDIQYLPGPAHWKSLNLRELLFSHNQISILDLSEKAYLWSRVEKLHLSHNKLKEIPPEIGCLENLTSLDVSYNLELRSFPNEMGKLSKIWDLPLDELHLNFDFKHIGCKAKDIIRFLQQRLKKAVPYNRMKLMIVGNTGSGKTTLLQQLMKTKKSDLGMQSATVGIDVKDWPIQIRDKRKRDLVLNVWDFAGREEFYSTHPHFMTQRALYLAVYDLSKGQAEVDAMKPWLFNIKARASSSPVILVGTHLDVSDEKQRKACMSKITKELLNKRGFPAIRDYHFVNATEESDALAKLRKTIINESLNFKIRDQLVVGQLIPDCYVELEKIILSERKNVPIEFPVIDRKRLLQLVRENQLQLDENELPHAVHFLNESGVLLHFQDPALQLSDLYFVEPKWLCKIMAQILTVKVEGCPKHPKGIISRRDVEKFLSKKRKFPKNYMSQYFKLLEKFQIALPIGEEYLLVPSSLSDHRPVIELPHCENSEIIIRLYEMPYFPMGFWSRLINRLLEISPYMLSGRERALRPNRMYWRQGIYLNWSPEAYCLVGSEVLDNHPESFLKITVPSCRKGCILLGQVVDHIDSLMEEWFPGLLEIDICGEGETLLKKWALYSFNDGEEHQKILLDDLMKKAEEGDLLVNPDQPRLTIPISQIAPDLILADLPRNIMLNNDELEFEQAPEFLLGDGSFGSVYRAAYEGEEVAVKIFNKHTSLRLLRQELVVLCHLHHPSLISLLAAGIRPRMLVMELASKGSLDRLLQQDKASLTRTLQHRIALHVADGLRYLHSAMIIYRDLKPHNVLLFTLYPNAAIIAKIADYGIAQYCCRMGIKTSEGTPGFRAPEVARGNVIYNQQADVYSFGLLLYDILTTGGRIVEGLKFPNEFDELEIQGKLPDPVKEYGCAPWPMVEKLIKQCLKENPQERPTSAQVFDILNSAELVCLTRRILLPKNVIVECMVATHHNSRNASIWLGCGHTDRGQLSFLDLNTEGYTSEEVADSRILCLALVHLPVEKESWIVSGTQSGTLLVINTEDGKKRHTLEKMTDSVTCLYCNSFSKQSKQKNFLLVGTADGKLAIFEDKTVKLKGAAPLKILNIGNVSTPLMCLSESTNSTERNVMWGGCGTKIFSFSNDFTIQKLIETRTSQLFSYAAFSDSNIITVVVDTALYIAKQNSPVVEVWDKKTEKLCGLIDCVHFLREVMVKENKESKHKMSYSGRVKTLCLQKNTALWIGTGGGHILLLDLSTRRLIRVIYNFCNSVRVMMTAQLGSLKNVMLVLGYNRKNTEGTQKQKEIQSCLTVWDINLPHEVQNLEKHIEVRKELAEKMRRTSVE
Method in brief: (§1)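 Adapta TR-FRET kinase assay with LRRKtide substrate in 50 mM Tris pH 8.5, 0.01% BRIJ-35, 10 mM MgCl2, 1 mM EGTA, 0.02% NaN3. ATP at Km: 70 μM for WT LRRK2, 100 μM for G2019S. Reaction 1 h at room temperature; after 60 min with detection mix, 665/615 nm emission ratio read.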

LRRK2 G2019S = LRRK2 G2019S (Homo sapiens (Human), UniProt Q5S007, G2019S); assay: LRRK2 G2019S Kinase Assay (Adapta); details: 100 μM ATP, LRRKtide substrate; read-out: LRRK2_G2019S IC50
Chain of LRRK2 G2019S (Q5S007 whole entry G2019S): as the sequence (Q5S007 whole entry) above, with G2019S counted along it
Method in brief: as §1

Chain of c-Abl (His-tagged recombinant human ABL1) (P00519 whole entry): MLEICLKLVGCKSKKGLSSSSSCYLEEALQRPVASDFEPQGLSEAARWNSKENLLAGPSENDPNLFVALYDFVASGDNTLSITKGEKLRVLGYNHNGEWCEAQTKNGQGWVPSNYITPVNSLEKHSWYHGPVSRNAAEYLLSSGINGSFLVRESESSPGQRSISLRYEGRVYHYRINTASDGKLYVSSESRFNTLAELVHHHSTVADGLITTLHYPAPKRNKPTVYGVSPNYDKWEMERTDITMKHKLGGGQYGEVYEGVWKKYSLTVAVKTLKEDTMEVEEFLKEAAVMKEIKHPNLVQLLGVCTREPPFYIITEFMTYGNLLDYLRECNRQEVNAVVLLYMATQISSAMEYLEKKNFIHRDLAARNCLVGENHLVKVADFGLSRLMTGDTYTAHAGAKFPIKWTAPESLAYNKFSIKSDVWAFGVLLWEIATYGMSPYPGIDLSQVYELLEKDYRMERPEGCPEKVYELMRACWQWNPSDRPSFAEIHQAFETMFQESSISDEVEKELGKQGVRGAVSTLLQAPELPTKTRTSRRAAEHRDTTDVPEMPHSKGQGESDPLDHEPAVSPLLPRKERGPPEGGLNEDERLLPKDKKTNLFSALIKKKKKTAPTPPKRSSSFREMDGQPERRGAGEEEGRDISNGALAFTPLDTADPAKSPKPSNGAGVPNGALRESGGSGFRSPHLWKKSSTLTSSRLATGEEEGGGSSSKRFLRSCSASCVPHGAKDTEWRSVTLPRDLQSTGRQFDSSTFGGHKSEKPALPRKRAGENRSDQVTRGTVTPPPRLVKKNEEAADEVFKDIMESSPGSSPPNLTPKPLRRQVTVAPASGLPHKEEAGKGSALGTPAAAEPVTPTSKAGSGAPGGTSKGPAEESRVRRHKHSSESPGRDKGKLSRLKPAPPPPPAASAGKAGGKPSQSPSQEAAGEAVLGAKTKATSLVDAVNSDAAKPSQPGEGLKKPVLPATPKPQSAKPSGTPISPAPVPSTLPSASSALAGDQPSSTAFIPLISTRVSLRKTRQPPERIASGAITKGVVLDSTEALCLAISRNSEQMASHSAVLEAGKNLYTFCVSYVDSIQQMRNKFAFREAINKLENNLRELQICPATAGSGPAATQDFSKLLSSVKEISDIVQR

Row | IC50 [1] [nM] | IC50 (LRRK2 (WT)) [nM] | IC50 (LRRK2 G2019S) [nM] | SMILES
1 | < 10 | 101 to 1000 | 101 to 1000 | Cc1c(Cl)cccc1-c1ccc2nc(NC(=O)[C@@H]3C[C@@H]3F)cn2c1 [Example 30, (1S,2S)—N-(6-(3-chloro-2-methylphenyl)imidazo[1,2-a]pyridin-2-yl)-2-fluorocyclopropane-1-carboxamide]
2 | < 10 | 101 to 1000 | 10 to 100 | CNc1ccc(C)c(-c2ccc3nc(NC(=O)[C@@H]4C[C@@H]4F)cn3c2)c1 [Example 24, (1S,2S)-2-fluoro-N-(6-(2-methyl-5-(methylamino)phenyl)imidazo[1,2-a]pyridin-2-yl)cyclopropane-1-carboxamide]
3 | 10 to 100 | 10 to 100 | 10 to 100 | Cc1c(F)cccc1-c1ccc2nc(NC(=O)C3CCC3)cn2c1 [Example 76, N-(6-(3-fluoro-2-methylphenyl)imidazo[1,2-a]pyridin-2-yl)cyclobutanecarboxamide]
4 | < 10 | 101 to 1000 | 10 to 100 | Cc1c(F)cccc1-c1ccc2nc(NC(=O)[C@H]3C[C@@H]3F)cn2c1 (stereo in doubt) [Example 71, 2-fluoro-N-(6-(3-fluoro-2-methylphenyl)imidazo[1,2-a]pyridin-2-yl)cyclopropanecarboxamide]
5 | 10 to 100 | > 1000 | 101 to 1000 | O=C(Nc1cn2cc(-c3ccc4sc(=O)[nH]c4c3)ccc2n1)[C@@H]1C[C@@H]1F [Example 54, (1S,2S)-2-fluoro-N-(6-(2-oxo-2,3-dihydrobenzo[d]thiazol-5-yl)imidazo[1,2-a]pyridin-2-yl)cyclopropane-1-carboxamide]
6 | < 10 | 101 to 1000 | 101 to 1000 | Cc1ccc(C)c(-c2ccc3nc(NC(=O)[C@@H]4C[C@@H]4F)cn3c2)c1 [Example 34, (1S,2S)—N-(6-(2,5-dimethylphenyl)imidazo[1,2-a]pyridin-2-yl)-2-fluorocyclopropane-1-carboxamide]
7 | 10 to 100 | > 1000 | > 1000 | O=C1Cc2ccc(-c3ccc4nc(NC(=O)[C@@H]5C[C@@H]5F)cn4c3)cc2N1 [Example 35, (1S,2S)-2-fluoro-N-(6-(2-oxoindolin-6-yl)imidazo[1,2-a]pyridin-2-yl)cyclopropane-1-carboxamide]
8 | < 10 | 101 to 1000 | 101 to 1000 | Cc1cc(Cl)ccc1-c1ccc2nc(NC(=O)[C@@H]3C[C@@H]3F)cn2c1 [Example 29, (1S,2S)—N-(6-(4-chloro-2-methylphenyl)imidazo[1,2-a]pyridin-2-yl)-2-fluorocyclopropane-1-carboxamide]
9 | < 10 | 101 to 1000 | 101 to 1000 | Cc1ccc(C#N)cc1-c1ccc2nc(NC(=O)[C@@H]3C[C@@H]3F)cn2c1 [Example 17, (1S,2S)—N-(6-(5-cyano-2-methylphenyl)imidazo[1,2-a]pyridin-2-yl)-2-fluorocyclopropane-1-carboxamide]
10 | < 10 | 10 to 100 | 10 to 100 | Cc1c(F)cccc1-c1ccc2nc(NC(=O)[C@@H]3C[C@H]3F)cn2c1 (stereo in doubt) [Example 72, 2-fluoro-N-(6-(3-fluoro-2-methylphenyl)imidazo[1,2-a]pyridin-2-yl)cyclopropanecarboxamide]
11 | < 10 | 10 to 100 | 10 to 100 | O=C(Nc1cn2cc(-c3cccc(F)c3F)ccc2n1)[C@@H]1C[C@@H]1F [Example 62, (1S,2S)—N-(6-(2,3-difluorophenyl)imidazo[1,2-a]pyridin-2-yl)-2-fluorocyclopropanecarboxamide]
12 | < 10 | 101 to 1000 | 101 to 1000 | Cc1cc(F)cc(C)c1-c1ccc2nc(NC(=O)[C@@H]3C[C@@H]3F)cn2c1 [Example 38, (1S,2S)-2-fluoro-N-(6-(4-fluoro-2,6-dimethylphenyl)imidazo[1,2-a]pyridin-2-yl)cyclopropane-1-carboxamide]
